From patent US20250382298A1, “NITROGEN-CONTAINING COMPOUND AND USE THEREOF” (SUZHOU GENHOUSE BIO CO., LTD., priority 2022, published 2025)
Like-named read-outs stand apart in the source and are kept apart here.

Legend:
[1] = test system: HT-29 cells; assay: Mitotic index analysis, pH3 expression in HT-29 cells; format: cell-based, human; details: Homo sapiens, 24 h treatment
Experimental: (§1) HCT-116 and HT-29 cells at the logarithmic growth phase were taken, digested with a cell lysis buffer (trypsin), centrifuged, counted, and seeded into a 96-well plate at an appropriate cell density (20000 cells/well), with 100 μL per well. The surrounding wells were filled with an appropriate amount of PBS to prevent water evaporation. The next day, the cells were treated with the compounds at different concentrations (with a starting concentration of 10 μM, 3-fold diluted to obtain 9 concentration gradients). After 24 h, the medium was aspirated, and the cells were washed twice with 100 μL of PBS. The cells were then fixed with 4% paraformaldehyde and incubated at room temperature for 15 min. The fixative solution was discarded, and the cells were washed with PBS. Then, 150 μL of specialized blocking solution (containing 1% Triton-100) was added to each well for blocking at room temperature for 2 h, and the plate was washed with PBS to remove excess blocking solution. Anti-phistone H3 (pH3) was diluted at a ratio of 1:1000 with a blocking solution containing 0.033% Triton-100, and a blank control group was set up. Then, incubation was performed at 4° C. overnight. The next day, the plate was washed twice with 1×PBST. Anti-rabbit-IgG (H+L) (CST) and DRAQ5 (Thermofisher) were each diluted at an appropriate ratio with a blocking solution containing 0.033% Triton-100 (secondary antibody: 1:2000; DRAQ5: 1:10000). Then, incubation was performed at room temperature for 2 h. The plate was washed twice with 1×PBST and once with PBS. Fluorescence signals at 700 nm and 800 nm were detected using a Li—COR Odyssey two-color near-infrared laser imager. Calculation was performed as follows: pH3 expression (%)=(Cmpd dose/DMSO control)×100. Cmpd dose is the value of the drug treatment group, and DMSO control is the value of the DMSO control group. The EC50 values were determined by fitting using the GraphPad Prism 7.0 software.

[2] = test system: HCT-116 cells; assay: Detection of cell proliferation activity by CCK8 method (HCT-116); format: cell-based; details: CCK8, 96 h
Text: (§2) This assay can be used to examine the potency of compounds in inhibiting the proliferation of tumor cells (OVCAR3, HT-29, BT-549, HCT-116). A lower IC50 value indicates high potency of the compound as a KIF18A inhibitor in the following assay setup,
(§3) McCoy's 5A medium purchased from Sangon Biotech; CCK8 kit purchased from Beyotime; OVCAR3, HT-29, HCT-116, and BT-549 cells purchased from Shanghai Fuheng Biotechnology Co., Ltd.; multimode microplate reader (Thermo).
(§4) Cells at the logarithmic growth phase were taken, digested with a cell lysis buffer (trypsin), centrifuged, counted, and seeded into a 96-well plate at an appropriate cell density (BT549: 1500 cells/well in 1640 medium. HT-29 and HCT-116: 2000 cells/well in McCoy's 5A medium), with 180 μL per well, for a total of 60 wells. The surrounding wells were filled with an equal amount of PBS to prevent water evaporation from the edge wells. The next day after cell plating, the test compounds at different concentration gradients (with an initial final concentration of 10 μM, diluted in a 1:5 gradient to obtain 9 concentration gradients) were added to the wells. Three replicate wells were set up for each concentration point, and a corresponding DMSO negative control group was also set up. Detection: After 96 h of drug treatment, the test cell culture plate was removed from the incubator. All the liquid in the 96-well plate was aspirated, and 100 μL of medium containing 10% CCK8 solution was added to each well. The plate was then incubated at 37° C. for 2 h (the OD450 of the DMSO group reached 1.5 or more), and the absorbance at 450 nm was measured using a microplate reader
(§5) After the background value was subtracted from the measurement for each well, the inhibition rate was calculated. Inhibition Rate (%)=(1−Sample/Vehicle)×100. Sample is the luminescence value of the drug treatment group, and Vehicle is the luminescence value of the DMSO control group. A sigmoidal dose-survival rate curve was plotted using a non-linear regression model in the GraphPad Prism 7.0 software, and the IC50 values were calculated.

[3] = test system: OVCAR3 cells; assay: Detection of OVCAR3 cell proliferation activity by CTG method; format: cell-based; details: Homo sapiens, OVCAR-3, 168 h, CellTiter-Glo, 7 days
Text: as §2
1640 medium; fetal bovine serum; penicillin/streptomycin antibiotics purchased from Wisent; CellTiter-Glo (chemiluminescence detection reagent for cell viability) reagent purchased from Promega; OVCAR3 cell line purchased from Nanjing Cobioer Biosciences Co., Ltd.; Nivo multimode microplate reader (PerkinElmer),
OVCAR3 cells were seeded into a white 96-well plate, with 80 μL of cell suspension containing 2000 OVCAR3 cells added to each well. The cell plate was incubated in a CO2 incubator overnight.
A test compound was 5-fold diluted to the 8th concentration (i.e., from 2 mM to […]) using a multichannel pipette, with duplicate wells set up. To an intermediate plate was added 78 μL of medium, and the serially diluted compound was transferred to the corresponding wells of the intermediate plate at 2 μL/well. The mixture was mixed well and then transferred to the cell plate at 20 μL/well. The concentration of the compound transferred to the cell plate ranged from 10 μM to 0.026 nM. The cell plate was incubated in a CO2 incubator for 7 days. Another cell plate was prepared and read for signal values on the day of compound addition, and these values were used as the maximum values (the Max value in the equation below) in data analysis. To this cell plate was added the chemiluminescence detection reagent for cell viability at 25 μL/well, and the luminescence signals were stabilized by incubation at room temperature for 10 min. Readings were taken using the multimode microplate reader.
To the cell plate was added the chemiluminescence detection reagent for cell viability at 25 μL/well, and the luminescence signals were stabilized by incubation at room temperature for 10 mm. Readings were taken using the multimode microplate reader, […]

[4] = target: KIF18A (Homo sapiens (Human), UniProt Q8NI77); assay: KIF18A enzymatic activity inhibition, ADP-Glo kit; format: biochemical; details: 4 nM KIF18A, 30 μM ATP
Experimental: In this experiment, an ADP-Glo kit was used to detect the inhibitory activity of the compounds against KIF18A. Each compound was prepared into a 10 mM stock solution with DMSO, which was then diluted at 1:5 to obtain 9 gradients with the initial final concentration set at 10 μM. Meanwhile, a control group and a blank group were also set up. The reaction buffer consisted of 15 mM Tris (pH 7.5), 10 mM MgCl2, and 0.01% Pluronic F-68. 4 nM KIF18A (1467) and the test compound were added to a 384-well plate and incubated at 37° C. for 20 mm. Then, 30 μM ATP was added to initiate the enzymatic reaction, and the plate was incubated at room temperature for 15 min. Finally, the ADP-Glo reagent was added to detect the luminescence intensity, where the luminescence intensity is directly proportional to the ADP content. Inhibition rate (%)=[…]. Sample signal is the value of the compound group, and DMSO signal is the value of the DMSO control group. Then, the inhibition rate at each concentration was calculated, and the IC50 was determined by fitting using the GraphPadPrism 7.0 software.

[5] = test system: BT-549 cells; assay: Detection of cell proliferation activity by CCK8 method (BT-549); format: cell-based; details: CCK8, 96 h
Text: as §2, §3, §4, §5

[6] = test system: HCT-116 cells; assay: Mitotic index analysis, pH3 expression in HCT-116 cells; format: cell-based; details: 24 h treatment
Experimental: as §1

[7] = test system: HT-29 cells; assay: Detection of cell proliferation activity by CCK8 method (HT-29); format: cell-based, human; details: CCK8, 96 h
Text: as §2, §3, §4, §5

[8] = test system: OVCAR3 cells; assay: Detection of cell proliferation activity by CCK8 method (OVCAR3); format: cell-based
Text: as §2, §3, §4, §5

[9] = Pharmacokinetic test in mice; format: in vivo; details: BALB/c mice; for AUC / Cmax / half-life: mouse, plasma; for half-life: read-out: t½ (converted)
Experimental: In this example, the pharmacokinetic behavior of the compounds after intravenous injection (IV) and intragastric (PO) administration in BALB/c mice was tested.
On the day of administration, mice were weighed for actual body weight and the administration volume was calculated. Each compound was tested in two groups with 9 mice in each group; one group was subjected to administration by single intravenous injection, and the other group of mice was subjected to single intragastric administration. Whole blood samples were collected via the orbit at prescribed time points (0.25 h, 0.5 h, 1 h, 2 h, 4 h, 8 h, and 24 h after administration). After blood sample collection, the samples were immediately transferred to labeled commercial sample tubes containing K2-EDTA (0.85-1.15 mg), followed by centrifugation (3200×g, 4° C., 10 min) and plasma collection. The plasma was transferred to a pre-cooled centrifuge tube, frozen in dry ice, and then stored in an ultra-low temperature freezer at −60° C. or lower until the LC-MS/MS analysis.
Plasma concentrations were determined by the LC-MS/MS method. Plasma drug concentration data for the compounds were processed using a non-compartmental model in the WinNonlin Version 6.3 (Pharsight, Mountain View, CA) pharmacokinetic software. The relevant pharmacokinetic parameters were calculated by a linear-log trapezoidal method.

[10] = Homo sapiens, OVCAR-3, CCK8, 96 h

Chain of KIF18A (Q8NI77 1-467): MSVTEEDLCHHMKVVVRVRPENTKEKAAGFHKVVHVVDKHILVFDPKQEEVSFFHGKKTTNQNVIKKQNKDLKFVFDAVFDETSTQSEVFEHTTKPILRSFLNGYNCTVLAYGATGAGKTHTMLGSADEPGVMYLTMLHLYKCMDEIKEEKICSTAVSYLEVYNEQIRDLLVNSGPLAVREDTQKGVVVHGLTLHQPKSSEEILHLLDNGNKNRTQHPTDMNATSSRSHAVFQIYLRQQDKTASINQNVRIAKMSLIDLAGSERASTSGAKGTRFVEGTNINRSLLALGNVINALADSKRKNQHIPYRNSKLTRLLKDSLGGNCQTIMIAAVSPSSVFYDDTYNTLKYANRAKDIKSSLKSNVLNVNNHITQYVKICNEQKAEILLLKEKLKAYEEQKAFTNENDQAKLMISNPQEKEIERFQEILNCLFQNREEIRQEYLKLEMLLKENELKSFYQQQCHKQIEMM

| EC50 [1] | IC50 ([2]; Homo sapiens) | IC50 [4] | IC50 ([5]; Homo sapiens) | EC50 ([6]; Homo sapiens) | IC50 ([7]; Homo sapiens) | IC50 [8, 10] | F ([9]; PO @30mpk) | AUC ([9]; 30 mg/kg, PO @30mpk) | Cmax ([9]; 30 mg/kg, PO @30mpk) | half-life ([9]; 30 mg/kg, PO @30mpk) | Structure (SMILES) | also measured |
| --- | --- | --- | --- | --- | --- | --- | --- | --- | --- | --- | --- | --- |
| 235 nM | > 10000 nM | 187 nM | 110 nM | > 10000 nM | 131 nM | – | – | – | – | – | CC1(S(=O)(=O)Nc2ccc(C(=O)Nc3cn4ccnc4c(N4CCC(F)(F)CC4)n3)c(N3CCC4(CC3)CC4)c2)CC1 [Compound 13] | IC50 [3]: 33 nM |
| 87 nM | > 10000 nM | 93.2 nM | 247 nM | > 10000 nM | 336 nM | – | – | – | – | – | Cn1ccc2cc(NC(=O)c3ccc(NS(=O)(=O)CCO)cc3N3CCC4(CC3)CC4)nc(N3CCC(F)(F)CC3)c21 [Compound 18] | IC50 [3]: 93 nM |
| – | > 10000 nM | 62.9 nM | 219 nM | > 10000 nM | 177 nM | 68.3 nM | – | – | – | – | O=C(Nc1cc2ncccc2c(N2CCC(F)(F)CC2)n1)c1ccc(NS(=O)(=O)CCO)cc1N1CCC2(CC1)CC2 [Compound 40] | – |
| 42.9 nM | > 10000 nM | 22 nM | 209 nM | > 10000 nM | 75.2 nM | 52.9 nM | 107% | 269 µM·h | 14.1 µM | 39 h | CS(=O)(=O)Nc1ccc(C(=O)Nc2cn3c(F)cnc3c(N3CCC(F)(F)CC3)n2)c(N2CC3CCC(C3)C2)c1 [Compound 52] | – |
| 13.4 nM | > 10000 nM | 40.8 nM | 121 nM | > 10000 nM | 25.4 nM | 16.2 nM | 142% | 436 µM·h | 23.6 µM | 80.8 h | Cn1ncc2cc(NC(=O)c3ccc(NS(C)(=O)=O)cc3N3CC4CCC(C4)C3)nc(N3CCC(F)(F)CC3)c21 [Compound 56] | – |
| 26.7 nM | > 10000 nM | 27.9 nM | 31.9 nM | > 10000 nM | 33.8 nM | 14.6 nM | 44% | 154 µM·h | 6.98 µM | 146 h | CS(=O)(=O)Nc1ccc(C(=O)Nc2cn3ncnc3c(N3CCC(F)(F)CC3)n2)c(N2CCC3(CC2)CC3)c1 [Compound 57] | – |
| 20 nM | > 10000 nM | 19.2 nM | 53.2 nM | > 10000 nM | 40.4 nM | 14.6 nM | – | – | – | – | CS(=O)(=O)Nc1ccc(C(=O)Nc2cn3cnnc3c(N3CCC(F)(F)CC3)n2)c(N2CC3CCC(C3)C2)c1 [Compound 65] | F ([9]; PO @5mpk): 82%; AUC ([9]; 5 mg/kg, PO @5mpk): 19.9 µM·h; Cmax ([9]; 5 mg/kg, PO @5mpk): 3.56 µM; half-life ([9]; 5 mg/kg, PO @5mpk): 3.9 h |
| 4.8 nM | > 10000 nM | 26 nM | 39.6 nM | > 10000 nM | 11.5 nM | 6.5 nM | 385% | 221 µM·h | 20.5 µM | 8.2 h | CS(=O)(=O)Nc1ccc(C(=O)Nc2cc3cn[nH]c3c(N3CCC(F)(F)CC3)n2)c(N2CC3CCC(C3)C2)c1 [Compound 69] | – |
| 33.6 nM | > 10000 nM | 95.9 nM | 91 nM | > 10000 nM | 68.9 nM | 31.5 nM | – | – | – | – | CS(=O)(=O)Nc1ccc(C(=O)Nc2cc3nccnc3c(N3CCC(F)(F)CC3)n2)c(N2CCC3(CC2)CC3)c1 [Compound 70] | – |
| 24.8 nM | > 10000 nM | 38.4 nM | 77.9 nM | > 10000 nM | 41.8 nM | 20.2 nM | 72% | 69.1 µM·h | 4.66 µM | 3.8 h | O=C(Nc1cc2nccnc2c(N2CCC(F)(F)CC2)n1)c1ccc(NS(=O)(=O)CCO)cc1N1CC2CCC(C2)C1 [Compound 73] | – |

| Structure (SMILES) | EC50 [1] | IC50 ([2]; Homo sapiens) | IC50 [4] | IC50 ([5]; Homo sapiens) | EC50 ([6]; Homo sapiens) | IC50 ([7]; Homo sapiens) | IC50 [8, 10] | F ([9]; PO @30mpk) | AUC ([9]; 30 mg/kg, PO @30mpk) | Cmax ([9]; 30 mg/kg, PO @30mpk) | half-life ([9]; 30 mg/kg, PO @30mpk) | also measured |
| --- | --- | --- | --- | --- | --- | --- | --- | --- | --- | --- | --- | --- |
| O=C(Nc1cn2ccnc2c(N2CCC(F)(F)CC2)n1)c1cnc(NS(=O)(=O)CCO)cc1N1CCC2(CC1)CC2 [Compound 38] | – | – | 7.6 nM | – | – | – | – | – | – | – | – | IC50 [2]: > 10000 nM; IC50 [5]: 31.9 nM; EC50 [6]: > 10000 nM; IC50 ([8]; CCK8, 96 h): 11.9 nM; IC50 [7]: 132 nM |
